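The compound was tested at five concentrations on cells cultured in 96-well plates, with a 48-hour exposure period. Abbreviation: GI50, concentration required for 50% inhibition of growth. Definition used: TGI = concentration required for complete inhibition of growth.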
Assays:
Assay in all cases: NCI anticancer screen, dose series, 48 h; in the data active = GI50 below about 0.43 µM; inactive = the rest
[1] = system: M14 melanoma
[2] = system: HCC-2998 colon
[3] = system: LXFL 529 NSCLC
[4] = system: OVCAR-4 ovarian
[5] = system: NCI-H460 lung
[6] = system: HT29 colon
[7] = system: COLO 205 colon
[8] = system: SK-OV-3 ovarian
[9] = system: OVCAR-8 ovarian
[10] = system: MOLT-4 leukemia
[11] = system: LOX IMVI melanoma
[12] = system: CAKI-1 renal
[13] = system: UACC-257 melanoma
[14] = system: SK-MEL-28 melanoma
[15] = system: UO-31 renal
[16] = system: SK-MEL-2 melanoma
[17] = system: DMS 273 small cell lung
[18] = system: ACHN renal
[19] = system: SNB-19 CNS
[20] = system: 786-0 renal
[21] = system: NCI-H226 lung
[22] = system: CCRF-CEM leukemia
[23] = system: HOP-62 NSCLC
[24] = system: K-562 leukemia
[25] = system: A549 NSCLC
[26] = system: SK-MEL-5 melanoma
[27] = system: HCT-116 colon
[28] = system: HL-60(TB) leukemia
[29] = system: EKVX NSCLC
[30] = system: DMS 114 small cell lung
[31] = system: U251 CNS
[32] = system: UACC-62 melanoma
[33] = system: SW-620 colon
[34] = system: RPMI-8226 leukemia
[35] = system: OVCAR-3 ovarian
[36] = system: SN12C renal
[37] = system: SF-539 CNS
[38] = system: MALME-3M melanoma
[39] = system: XF 498 CNS
[40] = system: KM12 colon
[41] = system: NCI-H23 lung
[42] = system: SF-295 CNS
[43] = system: IGROV1 ovarian
[44] = system: SF-268 CNS
[45] = system: M19-MEL melanoma
[46] = system: A498 renal
[47] = system: DLD-1 colon
[48] = system: NCI-H522 lung
[49] = system: HCT-15 colon
[50] = system: HOP-92 NSCLC
[51] = system: KM20L2 colon
[52] = system: TK-10 renal
[53] = system: OVCAR-5 ovarian
[54] = system: SNB-78 CNS
[55] = system: SNB-75 CNS
[56] = system: RXF 393 renal
[57] = system: SR leukemia
[58] = system: HOP-18 NSCLC

CCOC(=O)CC[C@H](NC(=O)c1[nH]cnc1/N=N/N(C)C)C(=O)OCC
> 100 µM: TGI [1] | TGI [2] | TGI [3] | TGI [4] | TGI [5] | TGI [6] | TGI [7] | TGI [8] | TGI [9] | TGI [10] | TGI [11] | TGI [12] | TGI [13] | TGI [14] | TGI [15] | TGI [16] | TGI [17] | TGI [18] | TGI [19] | TGI [20] | TGI [21] | TGI [22] | TGI [23] | TGI [24] | TGI [25] | TGI [26] | TGI [27] | TGI [28] | TGI [29] | TGI [30] | TGI [31] | TGI [32] | TGI [33] | TGI [34] | TGI [35] | TGI [36] | TGI [37] | TGI [38] | TGI [39] | TGI [40] | TGI [41] | TGI [42] | TGI [43] | TGI [44] | TGI [45] | TGI [46] | TGI [47] | TGI [48] | TGI [49]

Clc1ccc(-c2nnc3c4nnc(-c5ccc(Cl)cc5Cl)n4c4ccccc4n23)c(Cl)c1
63.2 µM: TGI [55]
> 100 µM: TGI [1] | TGI [2] | TGI [3] | TGI [4] | TGI [5] | TGI [6] | TGI [50] | TGI [7] | TGI [8] | TGI [9] | TGI [10] | TGI [51] | TGI [11] | TGI [12] | TGI [13] | TGI [14] | TGI [15] | TGI [16] | TGI [52] | TGI [17] | TGI [18] | TGI [19] | TGI [20] | TGI [22] | TGI [23] | TGI [24] | TGI [25] | TGI [26] | TGI [27] | TGI [53] | TGI [29] | TGI [30] | TGI [31] | TGI [32] | TGI [33] | TGI [34] | TGI [35] | TGI [36] | TGI [37] | TGI [38] | TGI [39] | TGI [40] | TGI [41] | TGI [42] | TGI [43] | TGI [44] | TGI [54] | TGI [45] | TGI [46] | TGI [47] | TGI [56] | TGI [48] | TGI [49]

O=c1[nH]cnc2c1sc(=S)n2-c1ccccc1
> 100 µM: TGI [1] | TGI [2] | TGI [3] | TGI [4] | TGI [5] | TGI [6] | TGI [50] | TGI [7] | TGI [8] | TGI [9] | TGI [10] | TGI [51] | TGI [11] | TGI [12] | TGI [13] | TGI [14] | TGI [15] | TGI [16] | TGI [52] | TGI [17] | TGI [18] | TGI [19] | TGI [20] | TGI [21] | TGI [22] | TGI [23] | TGI [24] | TGI [25] | TGI [26] | TGI [27] | TGI [57] | TGI [28] | TGI [53] | TGI [29] | TGI [30] | TGI [31] | TGI [32] | TGI [33] | TGI [35] | TGI [36] | TGI [37] | TGI [38] | TGI [39] | TGI [40] | TGI [41] | TGI [42] | TGI [43] | TGI [44] | TGI [54] | TGI [55] | TGI [45] | TGI [46] | TGI [47] | TGI [48] | TGI [49]

COc1cc2c(c(OC)c1OC)-c1ccc(SC)c(=O)cc1[C@@H](NCc1ccccc1[N+](=O)[O-])CC2
0.0556 µM: TGI [7]
0.0278 µM: TGI [27]
38.5 µM: TGI [22]
18.2 µM: TGI [32]
40.6 µM: TGI [54]
0.0237 µM: TGI [41]
0.0146 µM: TGI [6]
inactive: GI50 [58] > 100 µM | GI50 [53] > 100 µM | GI50 [55] 1.53 µM
0.0499 µM: TGI [9]
47.2 µM: TGI [13]
0.117 µM: TGI [40]
active: GI50 [24] 0.171 µM
19 µM: TGI [11]
0.0243 µM: TGI [30]
0.21 µM: TGI [1]
> 100 µM: TGI [4] | TGI [50] | TGI [10] | TGI [58] | TGI [12] | TGI [14] | TGI [15] | TGI [52] | TGI [18] | TGI [19] | TGI [23] | TGI [24] | TGI [25] | TGI [53] | TGI [29] | TGI [33] | TGI [38] | TGI [42] | TGI [45] | TGI [47]
41.5 µM: TGI [20]
0.0293 µM: TGI [35]
23.1 µM: TGI [34]
0.0558 µM: TGI [21]
0.0199 µM: TGI [37]
0.0826 µM: TGI [5]
0.0112 µM: TGI [51]
0.0283 µM: TGI [46]
0.0419 µM: TGI [31]
0.0487 µM: TGI [49]
15.8 µM: TGI [3]
0.0407 µM: TGI [2]
0.0298 µM: TGI [48]

CC1(C)CC(C)(C)CC(O)(C2(O)CC(C)(C)CC(C)(C)C2)C1
> 100 µM: TGI [1] | TGI [2] | TGI [3] | TGI [5] | TGI [6] | TGI [7] | TGI [8] | TGI [9] | TGI [10] | TGI [51] | TGI [11] | TGI [13] | TGI [14] | TGI [15] | TGI [52] | TGI [17] | TGI [18] | TGI [19] | TGI [20] | TGI [21] | TGI [22] | TGI [23] | TGI [24] | TGI [25] | TGI [26] | TGI [27] | TGI [57] | TGI [28] | TGI [29] | TGI [30] | TGI [31] | TGI [32] | TGI [33] | TGI [34] | TGI [35] | TGI [36] | TGI [37] | TGI [38] | TGI [39] | TGI [40] | TGI [41] | TGI [42] | TGI [43] | TGI [44] | TGI [45] | TGI [48] | TGI [49]

— PubChem BioAssay (NCI)
